Test results published in patent publication US8592629B2, “Sulfonamide derivatives as Nav 1.7 inhibitors” (Pfizer Limited, priority 2010, dated 2013).
Counter-ions that a name gives are not always drawn.

Biological target: T1, Nav1.7 (or SCN9A) channel (Homo sapiens, UniProt Q15858)
T1 construct: expressed in transfected cells
Test: Nav1.7 (hSCN9A) block in HEK cells, PatchXpress 7000 automated electrophysiology, estimated IC50 (EIC50)
Assay type: cell-based
Conditions: PatchXpress assay; HEK cells stably transfected with hSCN9A, voltage-clamped at V1/2 of inactivation
Outline: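 Stable hSCN9A HEK cells voltage-clamped at empirically determined inactivation V1/2 (8 s prepulse), current activated by 20 msec step to 0 mV; % inhibition from current before vs after compound. EIC50 derived from single-point data as concentration × (100−%inhibition)/%inhibition, excluding <20% and >80% inhibition; PatchXpress unless stated.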

T1 sequence (Q15858 whole entry): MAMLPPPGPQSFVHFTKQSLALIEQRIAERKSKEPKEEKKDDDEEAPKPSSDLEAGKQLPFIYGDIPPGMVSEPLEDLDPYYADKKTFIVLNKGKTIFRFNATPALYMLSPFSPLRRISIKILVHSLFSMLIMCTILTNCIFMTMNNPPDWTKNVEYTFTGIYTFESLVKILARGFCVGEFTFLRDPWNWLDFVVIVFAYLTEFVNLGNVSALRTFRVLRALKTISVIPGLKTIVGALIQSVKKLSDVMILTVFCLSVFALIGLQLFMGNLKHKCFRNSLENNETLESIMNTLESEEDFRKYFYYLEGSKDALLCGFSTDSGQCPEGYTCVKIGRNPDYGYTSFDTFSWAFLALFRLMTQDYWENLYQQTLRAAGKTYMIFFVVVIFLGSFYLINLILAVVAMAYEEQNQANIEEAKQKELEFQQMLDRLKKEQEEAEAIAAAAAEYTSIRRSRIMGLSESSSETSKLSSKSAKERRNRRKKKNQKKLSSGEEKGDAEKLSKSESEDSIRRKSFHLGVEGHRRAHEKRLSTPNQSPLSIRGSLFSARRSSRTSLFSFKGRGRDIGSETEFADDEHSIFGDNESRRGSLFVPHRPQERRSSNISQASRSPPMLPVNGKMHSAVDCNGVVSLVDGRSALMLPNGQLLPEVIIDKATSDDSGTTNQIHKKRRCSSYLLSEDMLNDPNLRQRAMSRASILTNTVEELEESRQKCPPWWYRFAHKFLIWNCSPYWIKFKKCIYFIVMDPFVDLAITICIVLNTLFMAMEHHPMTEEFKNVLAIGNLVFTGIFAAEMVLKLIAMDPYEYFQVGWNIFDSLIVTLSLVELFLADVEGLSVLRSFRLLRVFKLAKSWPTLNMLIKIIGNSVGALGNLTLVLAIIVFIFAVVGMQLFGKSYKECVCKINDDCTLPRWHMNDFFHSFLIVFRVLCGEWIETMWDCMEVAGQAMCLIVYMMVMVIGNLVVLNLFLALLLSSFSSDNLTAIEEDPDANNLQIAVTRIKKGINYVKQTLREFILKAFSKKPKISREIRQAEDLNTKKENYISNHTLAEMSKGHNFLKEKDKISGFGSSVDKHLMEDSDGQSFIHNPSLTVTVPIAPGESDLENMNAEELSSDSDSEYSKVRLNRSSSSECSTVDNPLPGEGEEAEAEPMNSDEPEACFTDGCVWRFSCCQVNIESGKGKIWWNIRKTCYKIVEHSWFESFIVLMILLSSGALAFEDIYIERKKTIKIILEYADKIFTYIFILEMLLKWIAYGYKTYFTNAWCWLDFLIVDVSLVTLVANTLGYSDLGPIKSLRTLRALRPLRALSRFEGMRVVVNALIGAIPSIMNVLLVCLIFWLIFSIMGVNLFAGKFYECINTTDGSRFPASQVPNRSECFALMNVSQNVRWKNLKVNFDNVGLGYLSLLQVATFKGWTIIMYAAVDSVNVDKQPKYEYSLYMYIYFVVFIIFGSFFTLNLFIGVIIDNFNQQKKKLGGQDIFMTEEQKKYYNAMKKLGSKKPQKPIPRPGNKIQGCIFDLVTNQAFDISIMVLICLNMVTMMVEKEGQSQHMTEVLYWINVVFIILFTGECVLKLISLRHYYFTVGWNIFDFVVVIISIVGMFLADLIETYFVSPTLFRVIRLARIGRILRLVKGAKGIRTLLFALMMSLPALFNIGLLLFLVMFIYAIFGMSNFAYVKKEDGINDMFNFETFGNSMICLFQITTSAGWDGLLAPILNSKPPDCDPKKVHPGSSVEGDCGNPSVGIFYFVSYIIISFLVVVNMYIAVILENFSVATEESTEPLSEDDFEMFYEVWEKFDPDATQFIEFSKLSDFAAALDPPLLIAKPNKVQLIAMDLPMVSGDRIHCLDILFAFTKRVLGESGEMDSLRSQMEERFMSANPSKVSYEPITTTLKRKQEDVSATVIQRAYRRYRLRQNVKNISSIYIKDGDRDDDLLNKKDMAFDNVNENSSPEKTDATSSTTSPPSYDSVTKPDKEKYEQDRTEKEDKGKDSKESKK

Row | SMILES | IC50 [nM]
1 | CC(C)(C)Oc1ncc(Oc2cc(F)c(C(=O)NS(C)(=O)=O)cc2Cl)cc1Cl [Example 101, 4-[(6-tert-butoxy-5-chloropyridin-3-yl)oxy]-5-chloro-2-fluoro-N-(methylsulfonyl)benzamide] | 34
2 | CC(F)(F)Oc1cc(Oc2cc(F)c(C(=O)NS(C)(=O)=O)cc2Cl)cnc1C1CC1 [Example 104, 5-chloro-4-(6-cyclopropyl-5-(1,1-difluoroethoxy)pyridin-3-yloxy)-2-fluoro-N-(methylsulfonyl)benzamide hydrochloride salt] | 67
3 | CS(=O)(=O)NC(=O)c1cc(Cl)c(Oc2cnc(OCC(F)(F)C(F)F)c(C(F)(F)F)c2)cc1F [Example 105, 5-Chloro-2-fluoro-N-(methylsulfonyl)-4-(6-(2,2,3,3-tetrafluoropropoxy)-5-(trifluoromethyl)pyridin-3-yloxy)benzamide] | 31
4 | CS(=O)(=O)NC(=O)c1cc(Cl)c(Oc2cnc(C3CC3)c(OC(F)F)c2)cc1F [Example 106, 5-chloro-4-(6-cyclopropyl-5-(difluoromethoxy)pyridin-3-yloxy)-2-fluoro-N-(methylsulfonyl)benzamide] | 1100
5 | CS(=O)(=O)NC(=O)c1cc(Cl)c(Oc2cnc(C3CC3)c(C(F)(F)F)c2)cc1F [Example 107, 5-chloro-4-(6-cyclopropyl-5-(trifluoromethyl)pyridin-3-yloxy)-2-fluoro-N-(methylsulfonyl)benzamide] | 49
6 | CS(=O)(=O)NC(=O)c1cc(Cl)c(Oc2cnc(-c3ccccc3)c(Cl)c2)cc1F [Example 108, 5-chloro-4-[(5-chloro-6-phenylpyridin-3-yl)oxy]-2-fluoro-N-(methylsulfonyl)benzamide] | 240
7 | CS(=O)(=O)NC(=O)c1cc(Cl)c(Oc2cnc(C3CC(F)(F)C3)c(Cl)c2)cc1F [Example 109, 5-chloro-4-{[5-chloro-6-(3,3-difluorocyclobutyl)pyridin-3-yl]oxy}-2-fluoro-N-(methylsulfonyl)benzamide] | 97
8 | CC(C)c1ncc(Oc2cc(F)c(C(=O)NS(C)(=O)=O)cc2Cl)cc1Cl [Example 111, 5-Chloro-4-(5-chloro-6-isopropylpyridin-3-yloxy)-2-fluoro-N-(methylsulfonyl)benzamide] | 290
9 | CS(=O)(=O)NC(=O)c1cc(Cl)c(Oc2cnc(C3CC3)c(C3CC3)c2)cc1F [Example 113, 5-chloro-4-[(5,6-dicyclopropylpyridin-3-yl)oxy]-2-fluoro-N-(methylsulfonyl)benzamide] | 53
10 | CS(=O)(=O)NC(=O)c1cc(F)c(Oc2cnc(NCC3CCC3)c(Cl)c2)cc1F [Example 115, 4-({5-chloro-6-[(cyclobutylmethyl)amino]pyridin-3-yl}oxy)-2,5-difluoro-N-(methylsulfonyl)benzamide] | 54
11 | CCN1CCN(c2ncc(Oc3cc(F)c(C(=O)NS(C)(=O)=O)cc3F)cc2Cl)CC1 [Example 118, 4-{[5-chloro-6-(4-ethylpiperazin-1-yl)pyridin-3-yl]oxy}-2,5-difluoro-N-(methylsulfonyl)benzamide] | > 1000
12 | CS(=O)(=O)NC(=O)c1cc(F)c(Oc2cnc(N3C[C@@H](F)[C@H](F)C3)c(Cl)c2)cc1F [Example 119, 4-({5-chloro-6-[(3R,4R)-3,4-difluoropyrrolidin-1-yl]pyridin-3-yl}oxy)-2,5-difluoro-N-(methylsulfonyl)benzamide] | 400
13 | CS(=O)(=O)NC(=O)c1cc(F)c(Oc2cnc(N3CCC(F)(F)C3)c(Cl)c2)cc1F [Example 123, 4-{[5-chloro-6-(3,3-difluoropyrrolidin-1-yl)pyridin-3-yl]oxy}-2,5-difluoro-N-(methylsulfonyl)benzamide] | 120
14 | CS(=O)(=O)NC(=O)c1cc(F)c(Oc2cnc(N3CCC(F)C3)c(Cl)c2)cc1F (centres unmarked) [Example 124, 4-{[5-chloro-6-(3-fluoropyrrolidin-1-yl)pyridin-3-yl]oxy}-2,5-difluoro-N-(methylsulfonyl)benzamide] | 640
15 | CO[C@@H]1CCCN(c2ncc(Oc3cc(F)c(C(=O)NS(C)(=O)=O)cc3F)cc2Cl)C1 [Example 128, 4-({5-chloro-6-[(3R)-3-methoxypiperidin-1-yl]pyridin-3-yl}oxy)-2,5-difluoro-N-(methylsulfonyl)benzamide] | 2400
16 | CCC(COC)Nc1ncc(Oc2cc(F)c(C(=O)NS(C)(=O)=O)cc2F)cc1Cl (centres unmarked) [Example 129, 4-[(5-chloro-6-{[1-(methoxymethyl)propyl]amino}pyridin-3-yl)oxy]-2,5-difluoro-N-(methylsulfonyl)benzamide] | 540
17 | CS(=O)(=O)NC(=O)c1cc(F)c(Oc2cnc(N3C[C@H]4CC[C@@H]3C4)c(Cl)c2)cc1F [Example 131, 4-({6-[(1R,4S)-2-azabicyclo[2.2.1]hept-2-yl]-5-chloropyridin-3-yl}oxy)-2,5-difluoro-N-(methylsulfonyl)benzamide] | 71
18 | C[C@@H]1CCCN1c1ncc(Oc2cc(F)c(C(=O)NS(C)(=O)=O)cc2F)cc1Cl [Example 132, 4-({5-chloro-6-[(2R)-2-methylpyrrolidin-1-yl]pyridin-3-yl}oxy)-2,5-difluoro-N-(methylsulfonyl)benzamide] | 160
19 | CN(c1ncc(Oc2cc(F)c(C(=O)NS(C)(=O)=O)cc2F)cc1Cl)C1CCC1 [Example 133, 4-({5-chloro-6-[cyclobutyl(methyl)amino]pyridin-3-yl}oxy)-2,5-difluoro-N-(methylsulfonyl)benzamide] | 170
20 | COC[C@H](C)Nc1ncc(Oc2cc(F)c(C(=O)NS(C)(=O)=O)cc2F)cc1Cl [Example 136, 4-[(5-chloro-6-{[(1S)-2-methoxy-1-methylethyl]amino}pyridin-3-yl)oxy]-2,5-difluoro-N-(methylsulfonyl)benzamide] | 890

Further lines, results first:

Row | IC50 [nM] | SMILES
21 | 400 | CS(=O)(=O)NC(=O)c1ccc(Nc2cnc(OC(C(F)(F)F)C(F)(F)F)c(Cl)c2)cc1 [Example 103, 4-(5-chloro-6-(1,1,1,3,3,3-hexafluoropropan-2-yloxy)Pyridin-3-ylamino)-N-(methylsulfonyl)benzamide]
22 | 100 | CS(=O)(=O)NC(=O)c1cc(Cl)c(Oc2cnc(C3CC3)c(OC(F)(F)F)c2)cc1F [Example 110, 5-chloro-4-(6-cyclopropyl-5-(trifluoromethoxy)pyridin-3-yloxy)-2-fluoro-N-(methylsulfonyl)benzamide]
23 | 19 | CS(=O)(=O)NC(=O)c1cc(Cl)c(Oc2cnc(C3CCC3)c(Cl)c2)cc1F [Example 112, 5-chloro-4-(5-chloro-6-cyclobutylpyridin-3-yloxy)-2-fluoro-N-(methylsulfonyl)benzamide]
24 | 210 | CC(C)N(C)c1ncc(Oc2cc(F)c(C(=O)NS(C)(=O)=O)cc2F)cc1Cl [Example 114, 4-({5-chloro-6-[isopropyl(methyl)amino]pyridin-3-yl}oxy)-2,5-difluoro-N-(methylsulfonyl)benzamide]
25 | 980 | CN(c1ncc(Oc2cc(F)c(C(=O)NS(C)(=O)=O)cc2F)cc1Cl)C1CC1 [Example 116, 4-({5-chloro-6-[cyclopropyl(methyl)amino]pyridin-3-yl}oxy)-2,5-difluoro-N-(methylsulfonyl)benzamide]
26 | 900 | CCN(C)c1ncc(Oc2cc(F)c(C(=O)NS(C)(=O)=O)cc2F)cc1Cl [Example 117, 4-({5-chloro-6-[ethyl(methyl)amino]pyridin-3-yl}oxy)-2,5-difluoro-N-(methylsulfonyl)benzamide]
27 | 660 | CS(=O)(=O)NC(=O)c1cc(F)c(Oc2cnc(N[C@H]3CC[C@H](F)C3)c(Cl)c2)cc1F [Example 120, 4-[(5-chloro-6-{[(1S,3S)-3-fluorocyclopentyl]amino}pyridin-3-yl)oxy]-2,5-difluoro-N-(methylsulfonyl)benzamide]
28 | 680 | COCC1CCCN1c1ncc(Oc2cc(F)c(C(=O)NS(C)(=O)=O)cc2F)cc1Cl (centres unmarked) [Example 121, 4-({5-chloro-6-[2-(methoxymethyl)pyrrolidin-1-yl]pyridin-3-yl}oxy)-2,5-difluoro-N-(methylsulfonyl)benzamide]
29 | 250 | COC(C)(C)CNc1ncc(Oc2cc(F)c(C(=O)NS(C)(=O)=O)cc2F)cc1Cl [Example 122, 4-({5-chloro-6-[(2-methoxy-2-methylpropyl)amino]pyridin-3-yl}oxy)-2,5-difluoro-N-(methylsulfonyl)benzamide]
30 | 960 | COC1(C)CN(c2ncc(Oc3cc(F)c(C(=O)NS(C)(=O)=O)cc3F)cc2Cl)C1 [Example 125, 4-{[5-chloro-6-(3-methoxy-3-methylazetidin-1-yl)pyridin-3-yl]oxy}-2,5-difluoro-N-(methylsulfonyl)benzamide]
31 | 470 | CC1CCN(c2ncc(Oc3cc(F)c(C(=O)NS(C)(=O)=O)cc3F)cc2Cl)CC1 [Example 126, 4-{[5-chloro-6-(4-methylpiperidin-1-yl)pyridin-3-yl]oxy}-2,5-difluoro-N-(methylsulfonyl)benzamide]
32 | > 1000 | CN1CCCC(Nc2ncc(Oc3cc(F)c(C(=O)NS(C)(=O)=O)cc3F)cc2Cl)C1 (centres unmarked) [Example 127, 4-({5-chloro-6-[(1-methylpiperidin-3-yl)amino]pyridin-3-yl}oxy)-2,5-difluoro-N-(methylsulfonyl)benzamide]
33 | 740 | CS(=O)(=O)NC(=O)c1cc(F)c(Oc2cnc(N3CC(F)(F)C3)c(Cl)c2)cc1F [Example 130, 4-{[5-chloro-6-(3,3-difluoroazetidin-1-yl)pyridin-3-yl]oxy}-2,5-difluoro-N-(methylsulfonyl)benzamide]
34 | 580 | CS(=O)(=O)NC(=O)c1cc(F)c(Oc2cnc(N3CC(F)C3)c(Cl)c2)cc1F [Example 134, 4-{[5-chloro-6-(3-fluoroazetidin-1-yl)pyridin-3-yl]oxy}-2,5-difluoro-N-(methylsulfonyl)benzamide]
35 | 140 | CC(C)CN(C)c1ncc(Oc2cc(F)c(C(=O)NS(C)(=O)=O)cc2F)cc1Cl [Example 135, 4-({5-chloro-6-[isobutyl(methyl)amino]pyridin-3-yl}oxy)-2,5-difluoro-N-(methylsulfonyl)benzamide]
